Patent US11566002B2, “Substituted tetrahydrocyclopenta[C]pyrroles, substituted dihydropyrrolizines, analogues thereof, and methods using same” (priority 2018, dated 2023)

Tested on: HBV rcDNA
Assay: HepDE19 assay with bDNA quantitation of HBV rcDNA
Assay type: cell-based, hepatitis B virus
Conditions: HepDE19 cells, Tet-free medium, 7 day-incubation, rcDNA measured by Quantigene 2.0 bDNA assay, top concentration 25 μM; read-out: DE-19 bDNA EC50
Summary of the method: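 HepDE19 cells (50,000/well) switched to Tet-free medium, then treated 7 days at 37° C with compounds from 25 μM (½-log, 8-point, duplicate; 0.5% DMSO). rcDNA quantified by bDNA with HBV probes; EC50/EC90 by 4-parameter fit. CC50 from CTG ATP on 5,000 cells/well after 4 days.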

Q: Which EC50 does the source give for `Cn1cc2c(c1C(=O)Nc1ccc(F)c(Cl)c1)CCC2NC(=O)OCc1n[nH]nc1C1CC1` (single isomer, unassigned) [Compound 146, (5-Cyclopropyl-2H-1,2,3-triazol-4-yl)methyl (1-((3-chloro-4-fluorophenyl)carbamoyl)-2-methyl-2,4,5,6-tetrahydrocyclopenta[c]pyrrol-4-yl)carbamate] here?
A: Its EC50 is 9.3 µM.

Q: With `Cn1cc2c(c1C(=O)Nc1ccc(F)c(Cl)c1)CCC2NC(=O)OCC1(C(N)=O)CC(F)(F)C1` (single isomer, unassigned) [Compound 56, (1-Carbamoyl-3,3-difluorocyclobutyl)methyl (1-((3-chloro-4-fluorophenyl)carbamoyl)-2-methyl-2,4,5,6-tetrahydrocyclopenta[c]pyrrol-4-yl)carbamate] as the molecule, how does the EC50 read?
A: The EC50 was 0.6 µM.

Q: How did the EC50 turn out when `Cn1c(C(=O)Nc2ccc(F)c(Cl)c2)c2c(c1C(F)(F)F)C(NC(=O)OCc1nc[nH]n1)CC2` (single isomer, unassigned) [Compound 126, (1H-1,2,4-Triazol-3-yl)methyl (1-((3-chloro-4-fluorophenyl)carbamoyl)-2-methyl-3-(trifluoromethyl)-2,4,5,6-tetrahydrocyclopenta[c]pyrrol-4-yl)carbamate] was run?
A: Its EC50 is 8.7 µM.

Q: Which EC50 does the source give for `Cn1cnc(COC(=O)NC2CCc3c2c(Cl)n(C)c3C(=O)Nc2ccc(F)c(Cl)c2)n1` (single isomer, unassigned) [Compound 52, (1-Methyl-1H-1,2,4-triazol-3-yl)methyl (3-chloro-1-((3-chloro-4-fluorophenyl)carbamoyl)-2-methyl-2,4,5,6-tetrahydrocyclopenta[c]pyrrol-4-yl)carbamate] here?
A: The EC50 was 0.31 µM.

Q: For `Cn1cc2c(c1C(=O)Nc1ccc(F)c(Cl)c1)CCC2NC(=O)OCc1cnco1` (single isomer, unassigned) [Compound 37, Oxazol-5-ylmethyl (1-((3-chloro-4-fluorophenyl)carbamoyl)-2-methyl-2,4,5,6-tetrahydrocyclopenta[c]pyrrol-4-yl)carbamate], which EC50 is on record?
A: Its EC50 is 2.6 µM.

Q: With `Cn1c(C(=O)Nc2ccc(F)c(Cl)c2)c2c(c1C1CC1)C(NC(=O)OCc1nc[nH]n1)CC2` (single isomer, unassigned) [Compound 98, (1H-1,2,4-Triazol-3-yl)methyl (1-((3-chloro-4-fluorophenyl)carbamoyl)-3-cyclopropyl-2-methyl-2,4,5,6-tetrahydrocyclopenta[c]pyrrol-4-yl)carbamate] as the molecule, how does the EC50 read?
A: The EC50 was 15 µM.

Q: `Cn1cc2c(c1C(=O)Nc1ccc(F)c(Cl)c1)CCC2NC(=O)OC[C@@H]1CCC(=O)N1` (single isomer, unassigned) [Compound 119] was tested. Which EC50 did it give?
A: The EC50 was 1.9 µM.

Q: With `Cn1nnc(COC(=O)NC2CCc3c2cn(C)c3C(=O)Nc2ccc(F)c(Cl)c2)n1` (centres unmarked) [Compound 143, (2-Methyl-1H-tetrazol-5-yl)methyl(1-((3-chloro-4-fluorophenyl)carbamoyl)-2-methyl-2,4,5,6-tetrahydrocyclopenta[c]pyrrol-4-yl)carbamate] as the molecule, how does the EC50 read?
A: The EC50 was 0.07 µM.

Q: For `Cn1c(Cl)c2c(c1C(=O)Nc1ccc(F)c(Cl)c1)CCCC2NC(=O)OCc1nc[nH]n1` (single isomer, unassigned) [Compound 135, (1H-1,2,4-Triazol-3-yl)methyl (3-chloro-1-((3-chloro-4-fluorophenyl)carbamoyl)-2-methyl-4,5,6,7-tetrahydro-2H-isoindol-4-yl)carbamate], which EC50 is on record?
A: Its EC50 is 0.18 µM.

Q: With `Cc1n[nH]nc1COC(=O)NC1CCc2c1cn(C)c2C(=O)Nc1ccc(F)c(Cl)c1` (single isomer, unassigned) [Compound 139, (5-Methyl-2H-1,2,3-triazol-4-yl)methyl (1-((3-chloro-4-fluorophenyl)carbamoyl)-2-methyl-2,4,5,6-tetrahydrocyclopenta[c]pyrrol-4-yl)carbamate] as the molecule, how does the EC50 read?
A: The EC50 was 3.6 µM.

Q: For `Cn1cc2c(c1C(=O)Nc1ccc(F)c(Cl)c1)CCC2NC(=O)OCc1nc[nH]n1` (single isomer, unassigned) [Compound 58, (1H-1,2,4-Triazol-3-yl)methyl (1-((3-chloro-4-fluorophenyl)carbamoyl)-2-methyl-2,4,5,6-tetrahydrocyclopenta[c]pyrrol-4-yl)carbamate], which EC50 is on record?
A: The EC50 was 0.97 µM.

Q: For `C#CCOC(=O)NC1CCc2c1cn(C)c2C(=O)Nc1ccc(F)c(Cl)c1` (single isomer, unassigned) [Compound 102, Prop-2-yn-1-yl (1-((3-chloro-4-fluorophenyl)carbamoyl)-2-methyl-2,4,5,6-tetrahydrocyclopenta[c]pyrrol-4-yl)carbamate], which EC50 is on record?
A: Its EC50 is 0.02 µM.

Q: Which EC50 does the source give for `Cn1cnc(COC(=O)NC2CCn3c(C(=O)Nc4ccc(F)c(Cl)c4)ccc32)n1` (single isomer, unassigned) [Compound 40, (1-Methyl-1H-1,2,4-triazol-3-yl)methyl (5-((3-chloro-4-fluorophenyl)carbamoyl)-2,3-dihydro-1H-pyrrolizin-1-yl)carbamate] here?
A: The EC50 was 6.6 µM.

Same assay, conditions: Hepatitis B virus, HepDE19, 168 h, HepDE19 cells, Tet-free medium, 7 day-incubation, rcDNA measured by Quantigene 2.0 bDNA assay, top concentration 25 μM; read-out: DE-19 bDNA EC50

Q: `CCn1cc2c(c1C(=O)Nc1ccc(F)c(Cl)c1)CCC2NC(=O)C1CC1` (centres unmarked) [Compound 18, N-(3-Chloro-4-fluorophenyl)-4-(cyclopropanecarboxamido)-2-ethyl-2,4,5,6-tetrahydro cyclopenta[c]pyrrole-1-carboxamide] was tested. Which EC50 did it give?
A: Its EC50 is 0.35 µM.

Q: Which EC50 does the source give for `Cn1c(Cl)c2c(c1C(=O)Nc1ccc(F)c(Cl)c1)CCC2NC(=O)OCc1nc[nH]n1` (centres unmarked) [Compound 103, (1H-1,2,4-Triazol-3-yl)methyl (3-chloro-1-((3-chloro-4-fluorophenyl)carbamoyl)-2-methyl-2,4,5,6-tetrahydrocyclopenta[c]pyrrol-4-yl)carbamate] here?
A: The EC50 was 0.02 µM.

Q: For `Cn1cnc(COC(=O)NC2CCc3c2cn(C)c3C(=O)Nc2ccc(F)c(C#N)c2)n1` (single isomer, unassigned) [Compound 67, (1-methyl-1H-1,2,4-triazol-3-yl)methyl (1-((3-cyano-4-fluorophenyl)carbamoyl)-2-methyl-2,4,5,6-tetrahydrocyclopenta[c]pyrrol-4-yl)carbamate], which EC50 is on record?
A: The EC50 was 0.06 µM.

Q: `Cn1cnc(COC(=O)NC2CCc3c2cn(C)c3C(=O)Nc2ccc(F)c(C(F)F)c2)n1` (single isomer, unassigned) [Compound 70, (1-Methyl-1H-1,2,4-triazol-3-yl)methyl (1-((3-(difluoromethyl)-4-fluorophenyl)carbamoyl)-2-methyl-2,4,5,6-tetrahydrocyclopenta[c]pyrrol-4-yl)carbamate] was tested. Which EC50 did it give?
A: Its EC50 is 0.07 µM.

Q: With `Cn1cnc(COC(=O)NC2CCCc3c2cn(C)c3C(=O)Nc2ccc(F)c(Cl)c2)n1` (single isomer, unassigned) [Compound 33, (1-Methyl-1H-1,2,4-triazol-3-yl)methyl (1-((3-chloro-4-fluorophenyl)carbamoyl)-2-methyl-4,5,6,7-tetrahydro-2H-isoindol-4-yl)carbamate] as the molecule, how does the EC50 read?
A: The EC50 was 0.03 µM.

Q: How did the EC50 turn out when `Cn1cnc(CNC(=O)NC2CCCc3c2cn(C)c3C(=O)Nc2ccc(F)c(Cl)c2)n1` (single isomer, unassigned) [Compound 84, N-(3-Chloro-4-fluorophenyl)-2-methyl-4-(3-((1-methyl-1H-1,2,4-triazol-3-yl)methyl)ureido)-4,5,6,7-tetrahydro-2H-isoindole-1-carboxamide] was run?
A: The EC50 was 0.34 µM.

Q: With `Cn1cc2c(c1C(=O)Nc1ccc(F)c(Cl)c1)CCCCC2=O` [Compound 72, N-(3-chloro-4-fluorophenyl)-2-methyl-4-oxo-2,4,5,6,7,8-hexahydrocyclohepta[c]pyrrole-1-carboxamide] as the molecule, how does the EC50 read?
A: The EC50 was 0.05 µM.

Same assay, conditions: Hepatitis B virus, HepDE19, 168 h, read-out: DE-19 bDNA EC50 (μM), HepDE19 cells, Tet-free medium, 7 day-incubation, rcDNA measured by Quantigene 2.0 bDNA assay, top concentration 25 μM

Q: `COC(=O)NC1CCCc2c1cn(C)c2C(=O)Nc1ccc(F)c(Cl)c1` (single isomer, unassigned) [Compound 74, Methyl (1-((3-chloro-4-fluorophenyl)carbamoyl)-2-methyl-4,5,6,7-tetrahydro-2H-isoindol-4-yl)carbamate] was tested. Which EC50 did it give?
A: The EC50 was 0.61 µM.

Q: Which EC50 does the source give for `Cn1c(Br)c2c(c1C(=O)Nc1ccc(F)c(Cl)c1)CCC2NC(=O)OCc1nc[nH]n1` (single isomer, unassigned) [Compound 125, (1H-1,2,4-Triazol-3-yl)methyl(3-bromo-1-((3-chloro-4-fluorophenyl)carbamoyl)-2-methyl-2,4,5,6-tetrahydrocyclopenta[c]pyrrol-4-yl)carbamate] here?
A: Its EC50 is 0.04 µM.

Same assay, conditions: read-out: DE-19 bDNA EC50; HepDE19 cells, Tet-free medium, 7 day-incubation, rcDNA measured by Quantigene 2.0 bDNA assay, top concentration 25 μM

Q: With `Cn1ccc(COC(=O)NC2CCc3c2cn(C)c3C(=O)Nc2ccc(F)c(Cl)c2)n1` (single isomer, unassigned) [Compound 21, (1-Methyl-1H-pyrazol-3-yl)methyl(1-((3-chloro-4-fluorophenyl)carbamoyl)-2-methyl-2,4,5,6-tetrahydrocyclopenta[c]pyrrol-4-yl)carbamate] as the molecule, how does the EC50 read?
A: Its EC50 is 0.04 µM.

Q: `Cn1ccc(COC(=O)NC2CCc3c2cn(C)c3C(=O)Nc2ccc(F)c(Cl)c2)n1` (single isomer, unassigned) [Compound 22, (1-Methyl-1H-pyrazol-3-yl)methyl(1-((3-chloro-4-fluorophenyl)carbamoyl)-2-methyl-2,4,5,6-tetrahydrocyclopenta[c]pyrrol-4-yl)carbamate] was tested. Which EC50 did it give?
A: Its EC50 is 0.78 µM.

Q: With `CCC#CCOC(=O)NC1CCc2c1cn(C)c2C(=O)Nc1ccc(F)c(Cl)c1` (single isomer, unassigned) [Compound 112, Pent-2-yn-1-yl(1-((3-chloro-4-fluorophenyl)carbamoyl)-2-methyl-2,4,5,6-tetrahydrocyclopenta[c]pyrrol-4-yl)carbamate] as the molecule, how does the EC50 read?
A: Its EC50 is 5.7 µM.

Q: `Cn1ccc(COC(=O)NC2CCCc3c2cn(C)c3C(=O)Nc2ccc(F)c(Cl)c2)n1` (single isomer, unassigned) [Compound 77, (1-Methyl-1H-pyrazol-3-yl)methyl(1-((3-chloro-4-fluorophenyl)carbamoyl)-2-methyl-4,5,6,7-tetrahydro-2H-isoindol-4-yl)carbamate] was tested. Which EC50 did it give?
A: Its EC50 is 0.07 µM.
